Data published in ChEMBL document CHEMBL3885881, “DrugMatrix”.

Species on record: Rattus norvegicus
Experiment: DrugMatrix - Regimen: Daily Repeat
Assay type: toxicity, organism-based, Sprague-Dawley
Parameters: regimen Daily Repeat, gender Male, age 6-8 weeks
Details: in vivo, po, route oral GAVAGE, […]; for ABSOLUTE BASOPHIL / ABSOLUTE EOSINOPHIL / ABSOLUTE LYMPHOCYTE / ABSOLUTE MONOCYTE / ABSOLUTE SEGMENTED NEUTROPHIL / BASOPHIL / EOSINOPHIL / ERYTHROCYTE COUNT / HEMATOCRIT / HEMOGLOBIN / LEUKOCYTE COUNT / LYMPHOCYTE / MEAN CORPUSCULAR HEMOGLOBIN / MEAN CORPUSCULAR HEMOGLOBIN CONCENTRATION / MEAN CORPUSCULAR VOLUME / MONOCYTE / NEUTROPHIL / NUCLEATED RED BLOOD CELLS / PLATELET COUNT: tissue Blood; for ALANINE AMINOTRANSFERASE / ALBUMIN / ALKALINE PHOSPHATASE / ASPARTATE AMINOTRANSFERASE / BLOOD UREA NITROGEN / CARBON DIOXIDE / CHLORIDE / CHOLESTEROL / CREATINE PHOSPHOKINASE / CREATININE / GLUCOSE / LACTATE DEHYDROGENASE / LIPASE / PHOSPHORUS / POTASSIUM / SODIUM / TOTAL BILIRUBIN / TOTAL PROTEIN / URIC ACID: tissue Plasma
[1] = 50 mg/kg, 120 h, dose level Low, time 5 day
[2] = 714 mg/kg, 72 h, dose level High, time 3 day
[3] = 714 mg/kg, 120 h, dose level High, time 5 day

COC(=O)Nc1nc2ccc(C(=O)c3ccccc3)cc2[nH]1 [MEBENDAZOLE]
ABSOLUTE BASOPHIL [1]: 0 CELLS/uL
ABSOLUTE EOSINOPHIL [1]: 0 CELLS/uL
ABSOLUTE LYMPHOCYTE [1]: 6435.67 CELLS/uL
ABSOLUTE MONOCYTE [1]: 130 CELLS/uL
ABSOLUTE SEGMENTED NEUTROPHIL [1]: 501 CELLS/uL
BASOPHIL [1]: 0%
EOSINOPHIL [1]: 0%
ERYTHROCYTE COUNT [1]: 5.5 x10E6/uL
HEMATOCRIT [1]: 34.07%
HEMOGLOBIN [1]: 13.2 G/DL
LEUKOCYTE COUNT [1]: 7.07 x10E3/uL
LYMPHOCYTE [1]: 91.33%
MEAN CORPUSCULAR HEMOGLOBIN [1]: 23.93 pg
MEAN CORPUSCULAR HEMOGLOBIN CONCENTRATION [1]: 38.77 G/DL
MEAN CORPUSCULAR VOLUME [1]: 61.9 fL
MONOCYTE [1]: 1.67%
NEUTROPHIL [1]: 7%
NUCLEATED RED BLOOD CELLS [1]: 0 /100WBC
PLATELET COUNT [1]: 727.67 x10E3/uL
ALANINE AMINOTRANSFERASE [1]: 57.67 u/L
ALBUMIN [1]: 4.23 G/DL
ALKALINE PHOSPHATASE [1]: 399 u/L
ASPARTATE AMINOTRANSFERASE [1]: 84.33 u/L
BLOOD UREA NITROGEN [1]: 13 mg/dL
CARBON DIOXIDE [1]: 30.67 mmol/L
CHLORIDE [1]: 101.67 MEQ/L
CHOLESTEROL [1]: 64.67 mg/dL
CREATINE PHOSPHOKINASE [1]: 244 u/L
CREATININE [1]: 0.17 mg/dL
GLUCOSE [1]: 149 mg/dL
LACTATE DEHYDROGENASE [1]: 129.33 u/L
LIPASE [1]: 9.33 u/L
PHOSPHORUS [1]: 9.77 mg/dL
POTASSIUM [1]: 5.24 MEQ/L
SODIUM [1]: 144.5 MEQ/L
TOTAL BILIRUBIN [1]: 0.17 mg/dL
TOTAL PROTEIN [1]: 6.13 G/DL
URIC ACID [1]: 0.83 mg/dL
ABSOLUTE BASOPHIL [2]: 0 CELLS/uL
ABSOLUTE EOSINOPHIL [2]: 0 CELLS/uL
ABSOLUTE LYMPHOCYTE [2]: 11722 CELLS/uL
ABSOLUTE MONOCYTE [2]: 64.67 CELLS/uL
ABSOLUTE SEGMENTED NEUTROPHIL [2]: 713.33 CELLS/uL
BASOPHIL [2]: 0%
EOSINOPHIL [2]: 0%
ERYTHROCYTE COUNT [2]: 5.73 x10E6/uL
HEMATOCRIT [2]: 36.47%
HEMOGLOBIN [2]: 14.03 G/DL
LEUKOCYTE COUNT [2]: 12.5 x10E3/uL
LYMPHOCYTE [2]: 93%
MEAN CORPUSCULAR HEMOGLOBIN [2]: 24.53 pg
MEAN CORPUSCULAR HEMOGLOBIN CONCENTRATION [2]: 38.5 G/DL
MEAN CORPUSCULAR VOLUME [2]: 63.63 fL
MONOCYTE [2]: 0.67%
NEUTROPHIL [2]: 6.33%
NUCLEATED RED BLOOD CELLS [2]: 0 /100WBC
PLATELET COUNT [2]: 1226.67 x10E3/uL
ALANINE AMINOTRANSFERASE [2]: 73 u/L
ALBUMIN [2]: 4.17 G/DL
ALKALINE PHOSPHATASE [2]: 458.33 u/L
ASPARTATE AMINOTRANSFERASE [2]: 86.67 u/L
BLOOD UREA NITROGEN [2]: 12.33 mg/dL
CARBON DIOXIDE [2]: 34.33 mmol/L
CHLORIDE [2]: 99 MEQ/L
CHOLESTEROL [2]: 68 mg/dL
CREATINE PHOSPHOKINASE [2]: 464 u/L
CREATININE [2]: 0.15 mg/dL
GLUCOSE [2]: 137.67 mg/dL
LACTATE DEHYDROGENASE [2]: 159.67 u/L
LIPASE [2]: 10 u/L
PHOSPHORUS [2]: 11.13 mg/dL
POTASSIUM [2]: 6.13 MEQ/L
SODIUM [2]: 144.4 MEQ/L
TOTAL BILIRUBIN [2]: 0.2 mg/dL
TOTAL PROTEIN [2]: 6.07 G/DL
URIC ACID [2]: 0.6 mg/dL
ABSOLUTE BASOPHIL [3]: 0 CELLS/uL
ABSOLUTE EOSINOPHIL [3]: 0 CELLS/uL
ABSOLUTE LYMPHOCYTE [3]: 8770.67 CELLS/uL
ABSOLUTE MONOCYTE [3]: 141.33 CELLS/uL
ABSOLUTE SEGMENTED NEUTROPHIL [3]: 488 CELLS/uL
BASOPHIL [3]: 0%
EOSINOPHIL [3]: 0%
ERYTHROCYTE COUNT [3]: 5.57 x10E6/uL
HEMATOCRIT [3]: 35.9%
HEMOGLOBIN [3]: 13.67 G/DL
LEUKOCYTE COUNT [3]: 9.4 x10E3/uL
LYMPHOCYTE [3]: 93%
MEAN CORPUSCULAR HEMOGLOBIN [3]: 24.57 pg
MEAN CORPUSCULAR HEMOGLOBIN CONCENTRATION [3]: 38.1 G/DL
MEAN CORPUSCULAR VOLUME [3]: 64.5 fL
MONOCYTE [3]: 1.67%
NEUTROPHIL [3]: 5.33%
NUCLEATED RED BLOOD CELLS [3]: 0.33 /100WBC
PLATELET COUNT [3]: 1199 x10E3/uL
ALANINE AMINOTRANSFERASE [3]: 60.67 u/L
ALBUMIN [3]: 4.1 G/DL
ALKALINE PHOSPHATASE [3]: 481.33 u/L
ASPARTATE AMINOTRANSFERASE [3]: 90.67 u/L
BLOOD UREA NITROGEN [3]: 14 mg/dL
CARBON DIOXIDE [3]: 32.67 mmol/L
CHLORIDE [3]: 99.67 MEQ/L
CHOLESTEROL [3]: 65 mg/dL
CREATINE PHOSPHOKINASE [3]: 401 u/L
CREATININE [3]: 0.21 mg/dL
GLUCOSE [3]: 145.33 mg/dL
LACTATE DEHYDROGENASE [3]: 142.67 u/L
LIPASE [3]: 11.67 u/L
PHOSPHORUS [3]: 10.2 mg/dL
POTASSIUM [3]: 5.58 MEQ/L
SODIUM [3]: 146.1 MEQ/L
TOTAL BILIRUBIN [3]: 0.2 mg/dL
TOTAL PROTEIN [3]: 5.97 G/DL
URIC ACID [3]: 0.5 mg/dL
